Laboratory results from US20260000496A1, “MATERIALS AND METHODS FOR DRUG-INDUCED GINGIVAL OVERGROWTH” (Optimed Technology, Inc., priority 2019, published 2026).

Experiments:
phospho-p65 = test: Mice study #2: phospho-p65 immunoblotting of gingival samples; assay type: in vivo, C57BL/6 mice; settings: pattern as for Myd88 (disease higher than control and treatment)
Procedure: Western blot analysis. Cells were seeded in 60 mm plates with a density of 5×10^5 cells per plate and washed briefly with Dulbecco's phosphate-buffered saline (Gibco, Waltham, MA, USA). Whole cell lysates were prepared using RIPA lysis buffer containing protease inhibitor cocktail (Sigma-Aldrich). Total protein concentration was determined using the BCA reagent (Pierce, Waltham, MA, USA). 20 μg of total protein were resolved on sodium dodecyl sulfate-polyacrylamide gel electrophoresis and transferred to polyvinylidenedifluoride membrane and immunoblotted. The blots were incubated for 1 h in 1% bovine serum albumin (BSA) (Sigma-Aldrich) to block the non-specific bindings followed by over-night incubation in primary antibodies (MyD88 and pP65 from Cell Signaling Technology, and human LITAF ThermoFisher Sigma) at 4° C. on shaker. Next day, blots were washed for three times (10 min each) in Tris-buffered saline containing 1% Tween20 (TBST) followed by incubation with secondary antibody (Goat anti-rabbit IgG HRP) with 1:10,000 dilution for 1 h. […] The band intensities were quantified using software ImageJ (NIH, USA) and relative protein levels were normalized by β-actin (Cell Signaling). […] The band intensities were measured by the software ImageJ (NIH, USA), and relative protein levels were normalized by β-actin.

[1] = system: TNF-α in Oral Keratinocytes; test: TNF-α ELISA in oral keratinocytes; assay type: cell-based, human; settings: for amount of secreted TNF-α by ELISA: LPS (10 μg/ml), FA (10 μg/ml), 24 hours, p<0.05
Procedure: Cell Culture. Normal human oral keratinocytes (NOKSI) and fibroblast (HOF) cells were maintained in Dulbecco […] Eagle's medium (Sigma-Aldrich, St. Louis, MO, USA) supplemented with 10% fetal bovine serum (Atlas Bio-logicals, Fort Collins, CO, USA) and 100 units/mL penicillin and 100 μg/mL streptomycin (LifeTechnologies, Carlsbad, CA, USA). Cells were grown in incubator at 37° C. in a humidified chamber with 5% CO2.
Drugs treatment in cell culture. The cells were treated alone or with different combination of lipopolysaccharide, cyclosporine, phenytoin, and folic acid. All of them were purchased from Sigma-Aldrich (St. Louis, MO, USA). Each of them were used from 0 μg/ml to 40 μg/ml and the optimum concentration were found 10 μg/ml.
Enzyme linked immunosorbent assay (ELISA). ELISA was conducted with a mouse TNF-α ELISA Kit (PeproTech, USA) and TGF-β Emax ImmunoAssay System (Promega USA) to detect the TNF-α and TGF-β respectively. After normalization of the total cells or tissue protein lysates, 20 μg protein of each sample was used for the detection of TNF-α or TGF-β. ELISA was performed according to the manufacturers' instructions. For TNF-α, 100 ng/100 μl of capture antibody was added to each well of 96 well assay plate and incubated for overnight at room temperature. […] Optical absorbing values were read at 405 and 450 nm and corrected by 650 nm. […] TMB One Solution was added for 15 minutes and the reaction were stopped using 100 μl of 1N hydrochloric acid and the absorbance at 450 nm were recorded on a plate reader. Data were analyzed using excel software. […]
Folic acid reduces TNF-α oral keratinocytes. […] After adhesion, the cells were treated with different concentration of folic acid (2.5 μg/ml-40 μg/ml) and amount of TNF-α was measured by ELISA (p<0.05).
Folic acid reduces TNF-α in Oral Keratinocytes on LPS stimulation. […] The amount of secreted TNF-α was determined by ELISA (p<0.05).
Oral Keratinocytes were seeded and treated with LPS (10 μg/ml), Phe (10 μg/ml), and FA (10 μg/ml) for 24 hours. The amount of secreted TNF-α was determined by ELISA. […]

In the case of `Nc1nc2ncc(CNc3ccc(C(=O)N[C@@H](CCC(=O)O)C(=O)O)cc3)nc2c(=O)[nH]1` [folic acid], the “phospho p65 expression, pattern across groups” value (phospho-p65) is reported as “a similar pattern”, the “amount of secreted TNF-α by ELISA” value ([1]; CSA (10 μg/ml)) is reported as “reduces TNF-α” and the “amount of secreted TNF-α by ELISA” value ([1]; Phe (10 μg/ml)) is reported as “inhibits Phenytoin-induced TNF-α”. The “amount of TNF-α by ELISA” value ([1]; folic acid […]-40 μg/ml alone, p<0.05 vs non-treated) was “reduces TNF-α”.
